Experimental data reported in patent publication US9878984B2, “Anti-cancer compounds” (NORTHWESTERN UNIVERSITY, priority 2008, dated 2018).

Test system: HeLa, PC-3M, and MDA-MB-231
Assay: MTS growth inhibition assay, human cancer cell lines
Type: cell-based
Conditions: 72 hr, MTS proliferation assay
Method: Cell Culture: HeLa (cervical carcinoma), WI-38 (normal human […] fibroblasts), and MDA-MB-231 (breast carcinoma), cells were cultured in DMEM (Invitrogen—Carlsbad, Calif.) and PC-3M (metastatic prostate carcinoma) cells were cultured in RPMI-1640. Peripheral blood mononuclear cells (PBMCs) were voluntarily collected from a healthy laboratory worker by standard sterile phlebotomy techniques and isolated using Vacutainer CPT collection tubes (BD Biosciences—Bedford, Mass.). PBMCs were isolated freshly for each experiment. All DMEM and RPMI-1640 media was supplemented with 10% FBS (Atlanta Biologicals—Lawrenceville, Ga.) and 100 U/mL penicillin and streptomycin (Invitrogen). […]
Growth Inhibition Assays: HeLa, MDA-MB-231, PC-3M, WI-38, and HUVEC cells were plated at 5,000 cells per well in 96 well plates and allowed to attach for 20 hr (8 hr for HeLa). […] Cell proliferation was measured at t=0 (time at start of treatment) and t=72 hr using MTS AQueous non-radioactive proliferation assay (Promega—Madison, Wis.). […] The absorbance at 490 nm in each well was read with a Spectramax 250 plate reader (Molecular Devices—Sunnyvale, Calif.). […] Data were fit to one site dose response curves in order to obtain specific growth inhibitory concentrations and the relative standard errors of the mean for these concentrations were calculated by the XLfit4 software. […]

Which growth inhibition potency does the source give for CN(C)CCN1C(=O)c2cccc3c(N)ccc(c23)C1=O [A1, 6-amino-2-[2-(dimethylamino)ethyl]-1H-benz[de]isoquinoline-1,3(2H)-dione] here?
The growth inhibition potency was “near identical to amonafide”.
